{"source": "patent US8420571B2", "about": "“Synergistic herbicidal composition containing fluroxypyr and cyhalofop, metamifop or profoxydim” (Dow AgroSciences, LLC, priority 2009, dated 2013)", "type_in_all_cases": "in vivo", "key": {"[1]": {"tested_on": "tighthead sprangletop (Leptochloa panicoides; LEFPA)", "assay": "Postemergence herbicidal activity of mixtures in the field (drill-seeded rice), visual weed control", "conditions": "29-36 DAA, Table 3", "experimental": "(§1) Evaluation of Postemergence Herbicidal Activity of Mixtures in the Field\n(§2) Field trials were conducted in drill-seeded rice using standard herbicide small plot research methodology. Plots were typically 3×10 meters (m, width×length) in size with 4 replicates per treatment. The rice crop was grown using normal cultural practices for fertilization, seeding, watering, flooding and maintenance to ensure good growth of the crop and the weeds.\n(§3) All treatments in the field trials were applied using a carbon dioxide (CO2) backpack sprayer calibrated to apply 187 L/ha spray volume. Commercially available products of cyhalofop-butyl and fluoroxypyr-meptyl were mixed in water at appropriately formulated product rates to achieve the desired rates based on a unit area of application (hectare) to achieve the desired application rates as shown. Treatments were rated at 29 to 36 days after application (DAA) as compared to the untreated control plants. Percent visual weed control was scored on a scale of 0 to 100 percent where 0 corresponds to no injury and 100 corresponds to complete kill.\n(§4) All treatment results, both for the single product and mixtures, are an average of 4 replicates and the tank mix interactions are significant at the […] level using Tukey's T-test.\n(§5) Colby's equation was used to determine the herbicidal effects expected from the mixtures (Colby, S. R. Calculation of the synergistic and antagonistic response of herbicide combinations. Weeds 1967, 15, 20-22.).\n(§6) The following equation was used to calculate the expected activity of mixtures containing two active ingredients, A and B: Expected=A+B−(A×B/100)\n(§7) A=observed efficacy of active ingredient A at the same concentration as used in the mixture.\n(§8) B=observed efficacy of active ingredient B at the same concentration as used in the mixture."}, "[2]": {"tested_on": "barnyardgrass (Echinochloa crus-galli; ECHCG)", "assay": "Postemergence herbicidal activity of mixtures in the field (drill-seeded rice), visual weed control", "conditions": "29-36 DAA, Table 3", "experimental": "as §1, §2, §3, §4, §5, §6, §7, §8"}, "[3]": {"tested_on": "winklegrass (Ischaemum rugosum; ISCRU)", "assay": "Postemergence herbicidal activity of mixtures in the greenhouse, visual weed control", "conditions": "14 DAA, Table 1", "experimental": "(§9) Evaluation of Postemergence Herbicidal Activity of Mixtures in the Greenhouse\n(§10) Seeds of the desired test plant species were planted in 80% mineral soil/20% grit planting mixture, which typically has a pH of 7.2 and an organic matter content of about 2.9 percent, in plastic pots with a surface area of 128 square centimeters (cm^2). The growing medium was steam sterilized. The plants were grown for 7-19 days in a greenhouse with an approximate 14-hour (h) photoperiod which was maintained at about 29° C. during the day and 26° C. during the night. Nutrients and water were added on a regular basis and supplemental lighting was provided with overhead metal halide 1000-Watt lamps as necessary. The plants were treated with postemergence foliar applications when they reached the third to fourth true leaf stage. All treatments were applied using a randomized complete block trial design, with 4 replications per treatment.\n(§11) Treatments consisted of the compounds as listed in Tables 1, 2, 4 and 5 with each compound applied alone and in combination. Formulated amounts of cyhalofop-butyl, metamifop, profoxydim and fluoroxypyr-meptyl ester, were placed in 60 milliliter (mL) glass vials and dissolved in a volume of 60 mL of a water solution containing Agri-dex crop oil concentrate in a 1% volume per volume (v/v) ratio. Compound requirements are based upon a 12 mL application volume at a rate of 187 liters per hectare (L/ha). Spray solutions of the mixtures were prepared by adding the stock solutions to the appropriate amount of dilution solution to form 12 mL spray solution with active ingredients in single and two way combinations. Formulated compounds were applied to the plant material with an overhead Mandel track sprayer equipped with 8002E nozzles calibrated to deliver 187 L/ha at a spray height of 18 inches ([…] (cm)) above average plant canopy.\n(§12) The treated plants and control plants were placed in a greenhouse as described above and watered by sub-irrigation to prevent wash-off of the test compounds. Treatments were rated at 14 to 21 days after application as compared to the untreated control plants. Percent visual weed control was scored on a scale of 0 to 100 percent where 0 corresponds to no injury and 100 corresponds to complete kill.\nas §5, §6, §7, §8"}, "[4]": {"tested_on": "Chinese sprangletop (Leptochloa chinensis; LEFCH)", "assay": "Postemergence herbicidal activity of mixtures in the greenhouse, visual weed control", "conditions": "21 DAA", "experimental": "as §9, §10, §11, §12, §5, §6, §7, §8"}, "[5]": {"tested_on": "broadleaf signalgrass (Brachiaria platyphylla; BRAPP)", "assay": "Postemergence herbicidal activity of mixtures in the greenhouse, visual weed control", "experimental": "as §9, §10, §11, §12, §5, §6, §7, §8"}, "[6]": {"tested_on": "giant foxtail (Setaria faberi; SETFA)", "assay": "Postemergence herbicidal activity of mixtures in the greenhouse, visual weed control", "conditions": "21 DAA, Table 2", "experimental": "as §9, §10, §11, §12, §5, §6, §7, §8"}, "[7]": {"tested_on": "barnyardgrass (Echinochloa crus-galli; ECHCG)", "assay": "Postemergence herbicidal activity of mixtures in the greenhouse, visual weed control", "experimental": "as §9, §10, §11, §12, §5, §6, §7, §8"}, "[8]": {"conditions": "Metamifop 7.5 g ai/ha alone, 21 DAA, Table 4"}, "[9]": {"conditions": "Metamifop 15 g ai/ha alone, 21 DAA, Table 4"}, "[10]": {"conditions": "Fluroxypyr 50 g ae/ha alone, 21 DAA, Table 4"}, "[11]": {"conditions": "Fluroxypyr 70 g ae/ha alone, 14 DAA, Table 1"}, "[12]": {"conditions": "Fluroxypyr 100 g ae/ha alone, 21 DAA, Table 4"}, "[13]": {"conditions": "Fluroxypyr 200 g ae/ha alone, 21 DAA, Table 4"}}, "note": "Several values for one entry are separate records, joined by “and”; a condition that tells them apart may be missing. Equal values may be shown once."}
{"smiles": "C[C@@H](Oc1ccc(Oc2ccc(C#N)cc2F)cc1)C(=O)O", "note": "[Cyhalofop, (2R)-2-[4-(4-cyano-2-fluorophenoxy)phenoxy]-propanoic acid]", "values": [{"measurement": "% Control LEFPA Ob", "setting": "[1]; Cyhalofop 262 g ae/ha alone", "result": 33, "unit": "%"}, {"measurement": "% Control ECHCG Ob", "setting": "[2]; Cyhalofop 262 g ae/ha alone", "result": 67, "unit": "%"}, {"measurement": "% Control ISCRU Ob", "setting": "[3]; Cyhalofop 126 g ae/ha alone", "result": 15, "unit": "%"}, {"measurement": "% Control LEFCH Ob", "setting": "[4]; Cyhalofop 63 g ae/ha alone, Table 2", "result": 67, "unit": "%"}, {"measurement": "% Control BRAPP Ob", "setting": "[5]; Cyhalofop 253 g ae/ha alone, 14 DAA, Table 1", "result": 77, "unit": "%"}, {"measurement": "% Control SETFA Ob", "setting": "[6]; Cyhalofop 63 g ae/ha alone", "result": 82, "unit": "%"}, {"measurement": "% Control ECHCG Ob", "setting": "[7]; Cyhalofop 63 g ae/ha alone, 14 DAA, Table 1", "result": 55, "unit": "%"}, {"measurement": "% Control ECHCG Ob", "setting": "[7]; Cyhalofop 126 g ae/ha alone, 14 DAA, Table 1", "result": 73, "unit": "%"}]}
{"smiles": "CCCC(=NOCC(C)Oc1ccc(Cl)cc1)C1=C(O)CC(C2CCCSC2)CC1=O", "note": "(stereo not shown) [Profoxydim, 2-[1-[[2-(4-chlorophenoxy)propoxy]imino]-butyl]-3-hydroxy-5-(tetrahydro-2H-thiopyran-3-yl)-2-cyclohexen-1-one]", "values": [{"measurement": "% Control LEFCH Ob", "setting": "[4]; Profoxydim 25 g ai/ha alone, Table 5", "result": 61, "unit": "%"}, {"measurement": "% Control LEFCH Ob", "setting": "[4]; Profoxydim 50 g ai/ha alone, Table 5", "result": 78, "unit": "%"}, {"measurement": "% Control ECHCG Ob", "setting": "[7]; Profoxydim 25 g ai/ha alone, 21 DAA, Table 5", "result": 54, "unit": "%"}]}
{"smiles": "C[C@@H](Oc1ccc(Oc2nc3ccc(Cl)cc3o2)cc1)C(=O)N(C)c1ccccc1F", "note": "[Metamifop, (2R)-2-[4-[(6-chloro-2-benzoxazolyl)oxy]-phenoxy]-N-(2-fluorophenyl)-N-methylpropanamide]", "values": [{"measurement": "% Control LEFCH Ob", "setting": "[4]; Metamifop 7.5 g ai/ha alone, Table 4", "result": 23, "unit": "%"}, {"measurement": "% Control LEFCH Ob", "setting": "[4]; Metamifop 30 g ai/ha alone, Table 4", "result": 88, "unit": "%"}, {"measurement": "% Control BRAPP Ob", "setting": "[5]; [8]", "result": 25, "unit": "%"}, {"measurement": "% Control BRAPP Ob", "setting": "[5]; [9]", "result": 54, "unit": "%"}, {"measurement": "% Control ECHCG Ob", "setting": "[7]; [8]", "result": 5, "unit": "%"}, {"measurement": "% Control ECHCG Ob", "setting": "[7]; [9]", "result": 33, "unit": "%"}, {"measurement": "% Control ECHCG Ob", "setting": "[7]; Metamifop 30 g ai/ha alone, 21 DAA, Table 4", "result": 74, "unit": "%"}]}
{"smiles": "Nc1c(Cl)c(F)nc(OCC(=O)O)c1Cl", "note": "[Fluroxypyr, [(4-amino-3,5-dichloro-6-fluoro-2-pyridinyl)oxy]acetic acid]", "values": [{"measurement": "% Control LEFPA Ob", "setting": "[1]; Fluroxypyr 190 g ae/ha alone", "result": 0, "unit": "%"}, {"measurement": "% Control LEFPA Ob", "setting": "[1]; Fluroxypyr 290 g ae/ha alone", "result": 3, "unit": "%"}, {"measurement": "% Control LEFPA Ob", "setting": "[1]; Fluroxypyr 580 g ae/ha alone", "result": 0, "unit": "%"}, {"measurement": "% Control ECHCG Ob", "setting": "[2]; Fluroxypyr 580 g ae/ha alone", "result": 0, "unit": "%"}, {"measurement": "% Control ISCRU Ob", "setting": "[3]; Fluroxypyr 140 g ae/ha alone", "result": 15, "unit": "%"}, {"measurement": "% Control LEFCH Ob", "setting": "[4]; Fluroxypyr 50 g ae/ha alone, Table 4", "result": 6, "unit": "%"}, {"measurement": "% Control LEFCH Ob", "setting": "[4]; Fluroxypyr 70 g ae/ha alone, Table 2", "result": 28, "unit": "%"}, {"measurement": "% Control LEFCH Ob", "setting": "[4]; Fluroxypyr 100 g ae/ha alone, Table 5", "result": 41, "unit": "%"}, {"measurement": "% Control LEFCH Ob", "setting": "[4]; Fluroxypyr 140 g ae/ha alone, Table 2", "result": 5, "unit": "%"}, {"measurement": "% Control LEFCH Ob", "setting": "[4]; Fluroxypyr 200 g ae/ha alone, Table 4", "result": 41, "unit": "%"}, {"measurement": "% Control LEFCH Ob", "setting": "[4]; Fluroxypyr 200 g ae/ha alone, Table 5", "result": "48% and 49%"}, {"measurement": "% Control BRAPP Ob", "setting": "[5]; [10]", "result": 5, "unit": "%"}, {"measurement": "% Control BRAPP Ob", "setting": "[5]; [11]", "result": 22, "unit": "%"}, {"measurement": "% Control BRAPP Ob", "setting": "[5]; [12]", "result": 1, "unit": "%"}, {"measurement": "% Control BRAPP Ob", "setting": "[5]; [13]", "result": 5, "unit": "%"}, {"measurement": "% Control SETFA Ob", "setting": "[6]; Fluroxypyr 140 g ae/ha alone", "result": 50, "unit": "%"}, {"measurement": "% Control ECHCG Ob", "setting": "[7]; [10]", "result": 0, "unit": "%"}, {"measurement": "% Control ECHCG Ob", "setting": "[7]; Fluroxypyr 50 g ae/ha alone, 21 DAA, Table 5", "result": 0, "unit": "%"}, {"measurement": "% Control ECHCG Ob", "setting": "[7]; [11]", "result": 14, "unit": "%"}, {"measurement": "% Control ECHCG Ob", "setting": "[7]; [12]", "result": 11, "unit": "%"}, {"measurement": "% Control ECHCG Ob", "setting": "[7]; Fluroxypyr 100 g ae/ha alone, 21 DAA, Table 5", "result": 0, "unit": "%"}, {"measurement": "% Control ECHCG Ob", "setting": "[7]; Fluroxypyr 140 g ae/ha alone, 14 DAA, Table 1", "result": 9, "unit": "%"}, {"measurement": "% Control ECHCG Ob", "setting": "[7]; [13]", "result": 6, "unit": "%"}, {"measurement": "% Control ECHCG Ob", "setting": "[7]; Fluroxypyr 200 g ae/ha alone, 21 DAA, Table 5", "result": 5, "unit": "%"}, {"measurement": "% Control ECHCG Ob", "setting": "[7]; Fluroxypyr 280 g ae/ha alone, 14 DAA, Table 1", "result": 8, "unit": "%"}]}
